# Columns and labels:
# [1] = molecular target: T1, hM1 (human Muscarinic receptor subtype 1) (Homo sapiens, UniProt P11229); assay: Human M1 calcium mobilization FLIPR assay; type: cell-based; details: hM1 expressed in CHO cells, intracellular Ca2+ release, read-out: hM1 EC50
# T1 construct: expressed in transfected cells; host or cells: CHO cells (Chinese hamster ovary cells, ATCC)
# T1 sequence (P11229 1-460): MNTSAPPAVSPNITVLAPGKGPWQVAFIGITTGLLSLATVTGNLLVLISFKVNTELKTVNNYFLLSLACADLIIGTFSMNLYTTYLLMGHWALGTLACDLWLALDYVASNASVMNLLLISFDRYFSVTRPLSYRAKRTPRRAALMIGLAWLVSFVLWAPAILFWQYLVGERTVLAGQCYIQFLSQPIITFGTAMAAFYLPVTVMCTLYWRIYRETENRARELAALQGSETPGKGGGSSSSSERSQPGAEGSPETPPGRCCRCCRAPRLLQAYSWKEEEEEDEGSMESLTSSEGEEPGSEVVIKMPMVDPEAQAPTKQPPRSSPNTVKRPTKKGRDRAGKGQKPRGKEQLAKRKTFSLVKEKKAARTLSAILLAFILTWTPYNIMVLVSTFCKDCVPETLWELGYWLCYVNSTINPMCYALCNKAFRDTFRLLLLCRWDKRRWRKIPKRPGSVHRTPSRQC
# Procedure: Human M1, rat M1, human M3 and human M5 Calcium Mobilization FLIPR™ Assay
# The compound activity in the present invention (EC50 or IC50) is measured using a 384 plate-based imaging assay that monitors drug induced intracellular Ca^2+ release in whole cells. Activation of hM1 (human Muscarinic receptor subtype 1, gene bank access NM_000738), rM1 (rat Muscarinic receptor subtype 1, gene bank access NM_080773), hM3 (human Muscarinic receptor subtype 3, gene bank access NM_000740NM_000740) and hM5 (human Muscarinic receptor subtype 5, gene bank access NM_0121258), receptors expressed in CHO cells (Chinese hamster ovary cells, ATCC) is quantified in a Molecular Devices FLIPR II™ instrument as an increase in fluorescent signal. Inhibition of hM3 and hM5 by compounds is determined by the decrease in fluorescent signal in response to 2 nM acetylcholine activation.
# Prior to experiment, the cell culture medium is removed from the plates by inversion. […] Plates are incubated at 37° C. for 60 minutes prior to start the experiment. The incubation is terminated by washing the cells four times in assay buffer, leaving a residual 25 μl buffer per well. Cell plates are then transferred to the FLIPR, ready for compound additions.
# The day of experiment, acetylcholine and compounds are diluted in assay buffer in three-fold concentration range (10 points serial dilution) for addition by FLIPR instrument. For all calcium assays, a baseline reading is taken for 10 seconds followed by the addition of 12.5 μl of compounds, resulting in a total well volume of 37.5 μl. Data is collected every second for 60 pictures and then every 6 seconds for 20 pictures prior to the addition of agonist. For hM3 and hM5, before agonist addition, a second baseline reading is taken for 10 seconds followed by the addition of 12.5 μl of agonist or buffer, producing a final volume of 50 μl. After agonist stimulation, the FLIPR continues to collect data every second for 60 pictures and then every 6 seconds for 20 pictures. The fluorescence emission is read using filter 1 (emission 510-570 nm) by the FLIPR on board CCD camera.
# Calcium mobilization output data are calculated as the maximal relative fluorescence unit (RFU) minus the minimal value for both compound and agonist reading frame (except for hM1 and rM1 using only the maximal RFU). Data are analyzed using sigmoidal fits of a non-linear curve-fitting program (XLfit version 4.2.2 Excel add-in version 4.2.2 build 18 math 1Q version 2.1.2 build 18). All pEC50 and plC50 values are reported as arithmetic means ±standard error of mean of ‘n’ independent experiments.
# [2] = molecular target: T2, cloned human M4 receptor (human Muscarinic receptor subtype 4) (Homo sapiens, UniProt P08173); assay: hM4 receptor GTPγS binding; type: biochemical; details: CHO cell membranes expressing hM4; [35S]GTPγS binding; read-out: hM4 EC50
# T2 construct: purchased Perkin-Elmer RBHM4M; host or cells: Chinese hamster ovary cells (CHO) membranes
# T2 sequence (P08173 1-479): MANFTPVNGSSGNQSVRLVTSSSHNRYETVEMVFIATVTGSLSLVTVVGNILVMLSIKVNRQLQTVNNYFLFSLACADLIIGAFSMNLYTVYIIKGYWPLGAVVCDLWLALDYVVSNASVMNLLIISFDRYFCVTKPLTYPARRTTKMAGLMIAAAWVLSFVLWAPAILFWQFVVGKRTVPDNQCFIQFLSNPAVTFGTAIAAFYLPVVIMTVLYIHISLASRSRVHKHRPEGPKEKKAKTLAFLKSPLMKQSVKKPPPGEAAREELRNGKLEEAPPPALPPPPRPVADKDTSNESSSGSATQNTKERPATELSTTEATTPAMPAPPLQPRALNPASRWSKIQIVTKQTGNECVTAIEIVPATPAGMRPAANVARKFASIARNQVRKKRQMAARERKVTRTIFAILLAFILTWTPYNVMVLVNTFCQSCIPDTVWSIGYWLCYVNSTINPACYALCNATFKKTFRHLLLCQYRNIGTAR
# Procedure: hM4 Receptor GTPγS Binding
# Membranes produced from Chinese hamster ovary cells (CHO) expressing the cloned human M4 receptor (human Muscarinic receptor subtype 4, gene bank access NM_000741), are obtained from Perkin-Elmer (RBHM4M). The membranes are thawed at 37° C., passed 3 times through a 23-gauge blunt-end needle, diluted in the GTPγS binding buffer (50 mM Hepes, 20 mM NaOH, 100 mM NaCl, 1 mM EDTA, 5 mM MgCl2, pH 7.4, 100 μM DTT). The EC50, IC50 and Emax of the compounds of the invention are evaluated from 10-point dose-response curves (three fold concentration range) done in 60 μl in 384-well non-specific binding surface plate (Corning). Ten microliters from the dose-response curves plate (5× concentration) are transferred to another 384 well plate containing 25 μl of the following: 10 μg of hM4 membranes, 500 μg of Flashblue beads (Perkin-Elmer) and GDP 40 μM. An additional 15 μl containing 3.3× (60,000 dpm) of GTPγ^35S (0.4 nM final) are added to the wells resulting in a total well volume of 50 μl. Basal and maximal stimulated [^35S]GTPγS binding are determined in absence and presence of 30 μM final of acetylcholine agonist. The membranes/beads mix are pre-incubated for 15 minutes at room temperature with 40 μM GDP prior to distribution in plates (20 μM final). The reversal of acetylcholine-induced stimulation (10 μM final) of [^35S]GTPγS binding is used to assay the antagonist properties (IC50) of the compounds. The plates are incubated for 60 minutes at room temperature then centrifuged at 400 rpm for 5 minutes. The radioactivity (cpm) is counted in a Trilux (Perkin-Elmer).
# Values of EC50, IC50 and Emax are obtained using sigmoidal fits of a non-linear curve-fitting program (XLfit version 4.2.2 Excel add-in version 4.2.2 build 18 math 1Q version 2.1.2 build 18) of percent stimulated [^35S]GTPγS binding vs. log(molar ligand). All pEC50 and plC50 values are reported as arithmetic means ±standard error of mean of ‘n’ independent experiments.
EC50 [1],EC50 [2],SMILES
13 nM,2480 nM,"COC(=O)N1CCC(C)(N2CCC(n3c(=O)[nH]c4ccccc43)CC2)C1 (racemic) [Example 2, methyl 3-methyl-3-(4-(2-oxo-2,3-dihydro-1H-benzo[d]imidazol-1-yl)piperidin-1-yl)pyrrolidine-1-carboxylate]"
13.5 nM,4380 nM,"CC1(N2CCC(n3c(=O)[nH]c4ccccc43)CC2)CCN(C(=O)OCCF)C1 (racemic) [Example 4, 2-fluoroethyl 3-methyl-3-(4-(2-oxo-2,3-dihydro-1H-benzo[d]imidazol-1-yl)piperidin-1-yl)pyrrolidine-1-carboxylate]"
< 1.4 nM,1730 nM,"CCOC(=O)N1CCC(C)(N2CCC(n3c(=O)[nH]c4cc(F)ccc43)CC2)C1 (single isomer, unassigned) [Example 6, ethyl 3-(4-(5-fluoro-2-oxo-2,3-dihydro-1H-benzo[d]imidazol-1-yl)piperidin-1-yl)-3-methylpyrrolidine-1-carboxylate]"
< 6.6 nM,> 24400 nM,"CCOC(=O)N1CCC(C)(N2CCC(n3c(=O)[nH]c4cc(F)ccc43)CC2)C1 (single isomer, unassigned) [Example 7, ethyl 3-(4-(5-fluoro-2-oxo-2,3-dihydro-1H-benzo[d]imidazol-1-yl)piperidin-1-yl)-3-methylpyrrolidine-1-carboxylate]"
10.1 nM,2000 nM,"CCOC(=O)N1CCC(C)(N2CCC(n3c(=O)[nH]c4cc(C)ccc43)CC2)C1 (single isomer, unassigned) [Example 12, ethyl 3-methyl-3-(4-(5-methyl-2-oxo-2,3-dihydro-1H-benzo[d]imidazol-1-yl)piperidin-1-yl)pyrrolidine-1-carboxylate]"
48.3 nM,> 90000 nM,"Cc1ccc2c(c1)[nH]c(=O)n2C1CCN(C2(C)CCN(C(=O)OC(C)C)C2)CC1 (single isomer, unassigned) [Example 14, isopropyl 3-methyl-3-(4-(5-methyl-2-oxo-2,3-dihydro-1H-benzo[d]imidazol-1-yl)piperidin-1-yl)pyrrolidine-1-carboxylate]"
94.9 nM,> 90000 nM,"Cc1ccc2c(c1)[nH]c(=O)n2C1CCN(C2(C)CCN(C(=O)OC(C)C)C2)CC1 (single isomer, unassigned) [Example 15, isopropyl 3-methyl-3-(4-(5-methyl-2-oxo-2,3-dihydro-1H-benzo[d]imidazol-1-yl)piperidin-1-yl)pyrrolidine-1-carboxylate]"
14.2 nM,97 nM,"CC#CCOC(=O)N1CCC(C)(N2CCC(n3c(=O)[nH]c4ccc(C)cc43)CC2)C1 (single isomer, unassigned) [Example 20, but-2-ynyl 3-methyl-3-(4-(6-methyl-2-oxo-2,3-dihydro-1H-benzo[d]imidazol-1-yl)piperidin-1-yl)pyrrolidine-1-carboxylate]"
12.5 nM,262 nM,"CC#CCOC(=O)N1CCC(C)(N2CCC(n3c(=O)[nH]c4cc(C)ccc43)CC2)C1 (single isomer, unassigned) [Example 21, but-2-ynyl 3-methyl-3-(4-(5-methyl-2-oxo-2,3-dihydro-1H-benzo[d]imidazol-1-yl)piperidin-1-yl)pyrrolidine-1-carboxylate]"
2.8 nM,421 nM,"CC#CCOC(=O)N1CCC(C)(N2CCC(n3c(=O)[nH]c4cc(F)ccc43)CC2)C1 (single isomer, unassigned) [Example 22, but-2-ynyl 3-(4-(5-fluoro-2-oxo-2,3-dihydro-1H-benzo[d]imidazol-1-yl)piperidin-1-yl)-3-methylpyrrolidine-1-carboxylate]"
9.4 nM,3870 nM,"COC(=O)N1CCC(C)(N2CCC(n3c(=O)[nH]c4cc(F)ccc43)CC2)C1 (single isomer, unassigned) [Example 23, methyl 3-(4-(5-fluoro-2-oxo-2,3-dihydro-1H-benzo[d]imidazol-1-yl)piperidin-1-yl)-3-methylpyrrolidine-1-carboxylate]"
10.4 nM,5090 nM,"CC1(N2CCC(n3c(=O)[nH]c4cc(F)ccc43)CC2)CCN(C(=O)OCCF)C1 (single isomer, unassigned) [Example 24, 2-fluoroethyl 3-(4-(5-fluoro-2-oxo-2,3-dihydro-1H-benzo[d]imidazol-1-yl)piperidin-1-yl)-3-methylpyrrolidine-1-carboxylate]"
1.8 nM,684 nM,"C#CCOC(=O)N1CCC(C)(N2CCC(n3c(=O)[nH]c4cc(F)ccc43)CC2)C1 (single isomer, unassigned) [Example 25, prop-2-ynyl 3-(4-(5-fluoro-2-oxo-2,3-dihydro-1H-benzo[d]imidazol-1-yl)piperidin-1-yl)-3-methylpyrrolidine-1-carboxylate]"
7.8 nM,857 nM,"Cc1ccc2[nH]c(=O)n(C3CCN(C4(C)CCN(C(=O)OCCF)C4)CC3)c2c1 (single isomer, unassigned) [Example 26, 2-fluoroethyl 3-methyl-3-(4-(6-methyl-2-oxo-2,3-dihydro-1H-benzo[d]imidazol-1-yl)piperidin-1-yl)pyrrolidine-1-carboxylate]"

# From patent US20090221642A1, “MUSCARINIC RECEPTOR AGONISTS, COMPOSITIONS, METHODS OF TREATMENT THEREOF, AND PROCESSES FOR PREPARATION THEREOF-176” (AstraZeneca AB, priority 2008, published 2009)
